pIC50: −log10 of the molar value. Where two headings read alike, the source gives them in different places.
Key:
human FXR LBD [1] = biological target: T1, human FXR LBD (Homo sapiens, UniProt Q96RI1); test: FRET ligand-sensing assay: SRC1 peptide binding to FXR LBD; conditions: 100 μM compound (FIG. 3A/4a)
T1 sequence (Q96RI1 222-472 isoform Q96RI1-2): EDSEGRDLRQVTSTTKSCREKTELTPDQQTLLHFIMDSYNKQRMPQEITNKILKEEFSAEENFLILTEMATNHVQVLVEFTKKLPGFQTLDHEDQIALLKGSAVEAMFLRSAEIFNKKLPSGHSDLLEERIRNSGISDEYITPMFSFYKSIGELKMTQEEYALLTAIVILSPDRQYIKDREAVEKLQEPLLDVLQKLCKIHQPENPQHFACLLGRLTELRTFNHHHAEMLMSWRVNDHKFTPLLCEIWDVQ

full-length human FXR = biological target: T2, full-length human FXR (Homo sapiens, UniProt Q96RI1); test: CAT reporter assay in CV-1 cells transfected with FXR, human RXRα and FXREhsp27-tk-CAT; conditions: 100 μM bile acid or farnesol, 10 μM steroid or TTNPB
T2 sequence (Q96RI1 1-472 isoform Q96RI1-2): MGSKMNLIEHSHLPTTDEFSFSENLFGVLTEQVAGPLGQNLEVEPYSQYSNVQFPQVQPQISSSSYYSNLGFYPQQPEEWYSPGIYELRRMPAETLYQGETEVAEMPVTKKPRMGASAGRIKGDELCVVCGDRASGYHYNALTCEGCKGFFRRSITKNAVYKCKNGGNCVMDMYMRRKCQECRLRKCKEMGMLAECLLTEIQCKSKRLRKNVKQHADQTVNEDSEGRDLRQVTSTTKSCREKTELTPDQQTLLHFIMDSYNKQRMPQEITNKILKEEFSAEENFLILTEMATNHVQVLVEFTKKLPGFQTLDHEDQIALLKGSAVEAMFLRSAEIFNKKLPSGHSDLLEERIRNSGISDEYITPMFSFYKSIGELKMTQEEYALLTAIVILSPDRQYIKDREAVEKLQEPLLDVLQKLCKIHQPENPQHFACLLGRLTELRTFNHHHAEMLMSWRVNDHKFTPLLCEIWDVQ
T2 sequence (P19793 1-462 partner): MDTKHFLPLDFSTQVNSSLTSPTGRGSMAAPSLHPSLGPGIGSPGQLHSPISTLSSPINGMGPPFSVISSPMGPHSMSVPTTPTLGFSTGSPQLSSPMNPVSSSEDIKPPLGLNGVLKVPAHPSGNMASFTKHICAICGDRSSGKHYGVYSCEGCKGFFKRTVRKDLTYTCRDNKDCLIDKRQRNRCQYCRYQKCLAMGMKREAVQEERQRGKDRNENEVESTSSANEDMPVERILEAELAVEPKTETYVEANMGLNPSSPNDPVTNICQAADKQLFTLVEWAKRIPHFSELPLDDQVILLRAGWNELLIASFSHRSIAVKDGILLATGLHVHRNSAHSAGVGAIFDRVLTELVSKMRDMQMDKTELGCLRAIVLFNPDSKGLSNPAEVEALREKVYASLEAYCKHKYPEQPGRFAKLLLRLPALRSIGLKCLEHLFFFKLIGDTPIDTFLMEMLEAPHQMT
From the text: CV-1 cells were transiently transfected with an expression plasmid encoding the human FXR and a reporter construct containing the hsp27-EcRE, a response element that is known to be activated by the FXR/RXR heterodimer.

human FXR LBD [2] = biological target: T1, human FXR LBD; test: FRET ligand-sensing assay in the presence of 50 μM CDCA (competition with CDCA for FXR binding)
From the text: Data are expressed as the means ± SD derived from three independent experiments.
Data were collected using a Wallac Victor™ fluorescence reader in a time-resolved mode.

Row | Compound | effect on interaction between FXR LBD and SRC1 peptide (human FXR LBD [1]) | activation of full-length human FXR (full-length human FXR) | other results
1 | C[C@H](CCC(=O)O)[C@H]1CC[C@H]2[C@@H]3[C@H](O)C[C@@H]4C[C@H](O)CC[C@]4(C)[C@H]3C[C@H](O)[C@]12C [CA, cholic acid] | no effect | inactive | –
2 | C[C@H](CCC(=O)O)[C@H]1CC[C@H]2[C@@H]3CC[C@@H]4C[C@H](O)CC[C@]4(C)[C@H]3C[C@H](O)[C@]12C [DCA, deoxycholic acid] | – | – | pIC50 (human FXR LBD [2]): 4.00
3 | C/C(=C\c1ccc(C(=O)O)cc1)c1ccc2c(c1)C(C)(C)CCC2(C)C [TTNPB] | did not promote interactions | activate FXR | effect on CDCA-FXR-SRC1 complex (fluorescence signal) (human FXR LBD [2]; in the presence of 50 μM CDCA): disrupted the CDCA-FXR-SRC1 complex in a dose-dependent fashion
4 | C[C@H](CCC(=O)O)[C@H]1CC[C@H]2[C@@H]3[C@H](O)[C@@H](O)[C@@H]4C[C@H](O)CC[C@]4(C)[C@H]3CC[C@]12C [α-muricholic acid] | – | no activation | –
5 | C[C@H](CCC(=O)O)[C@H]1CC[C@H]2[C@@H]3[C@@H](O)[C@@H](O)[C@@H]4C[C@H](O)CC[C@]4(C)[C@H]3CC[C@]12C [β-muricholic acid] | – | no activation | –
6 | muricholic acid [MCA] | – | – | pIC50 (human FXR LBD [2]; read-out: half-maximal inhibitor concentration IC50 in the cell-free ligand sensing assay, in the presence of 50 μM CDCA): < 3.00

Source: patent US6639078B1, “Assays for ligands for nuclear receptors” (SmithKline Beecham Corporation, priority 1998, dated 2003)
